Where a name gives a salt, the structure may show the parent alone. Read-outs that look alike come from different tables or passages of the source.
Tests used:
factor Xa = factor Xa (Homo sapiens, UniProt P00742); assay: in vitro factor Xa inhibition, substrate Boc-Ile-Glu-Gly-Arg-7-amido-4-methylcoumalin; format: biochemical; conditions: 0.2 M Tris-HCl, 0.02 M CaCl2, 0.005% Triton X-100, pH 8.0, 25°C, 20 minutes
trypsin = target: T1, trypsin (Bos taurus, UniProt P00760); assay: in vitro trypsin inhibition, fluorogenic substrate benzoyl-Arg-7-amido-4-methylcoumalin; format: biochemical; conditions: 0.2 M Tris-HCl, 0.02 M CaCl2, 0.005% Triton X-100, pH 8.0, 25°C, 60 minutes
T1 sequence (P00760 24-246): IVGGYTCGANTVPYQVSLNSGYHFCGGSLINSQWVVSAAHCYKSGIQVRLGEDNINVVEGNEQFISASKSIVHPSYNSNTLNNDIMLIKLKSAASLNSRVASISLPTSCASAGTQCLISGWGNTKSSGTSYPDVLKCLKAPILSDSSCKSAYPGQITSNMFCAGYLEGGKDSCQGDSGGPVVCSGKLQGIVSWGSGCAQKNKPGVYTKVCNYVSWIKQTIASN
Description: (§1) The method disclosed in JP-A-2-101017 was slightly modified and used for the measurement of the function of typical compounds belonging to the compound (I) of the present invention (Compounds 39, 3, 2, 26, 31 and 10) in terms of their in vitro activities to inhibit trypsin, thrombin, plasmin, factor Xa and elastase.
(§2) Substrate used for the enzyme reaction were: benzoyl-Arg-7-amido-4-methylcoumalin for trypsin, Boc-Val-Pro-Arg-7-amido-4-methylcoumalin for thrombin, Boc-Val-Leu-Lys-7-amido-4-methylcoumalin for plasmin, Boc-Ile-Glu-Gly-Arg-7-amido-4-methylcoumalin for factor Xa and methoxysuccinyl-Ala-Ala-Pro-Val-7-amido-4-methylcoumalin for elastase. […] Each enzyme reaction was carried out in 0.2 M Tris-HCl buffer supplemented with 0.02 M CaCl₂ and 0.005% Triton X-100 at pH 8.0 for trypsin, thrombin, plasmin and factor Xa or at pH 7.2 for elastase. Each sample solution to be measured was mixed with each enzyme solution and the reaction mixture was incubated at 25°C for 60 minutes in the case of trypsin or for 20 minutes in other cases of enzymes. In this instance, a compound disclosed in JP-A-51-138642 was used as a Comparative Example 1, and a compound disclosed in JP-A-63-165357 as a Comparative Example 2.

male rats of Wistar line = assay: caerulein-induced acute pancreatitis edema, prevention by oral administration; format: in vivo; conditions: for Serum amylase / % Pancreas wt.: 15 minutes before caerulein (40 µg/kg i.p. twice); for Serum amylase: blood 6 hours after second caerulein; for % Pancreas wt.: pancreas wet weight to body weight, 6 hours after second caerulein
Description: […] Experiments were started at eight o'clock in the morning, with the animals in each group under satiation conditions. After measuring their body weights, caerulein pancreatitis was prepared by intraperitoneal administration of caerulein (mfd. by Kyowa Hakko K.K.) (40 μg/kg) twice at one hour interval. Six hours after the second administration, each rat was subjected to laparotomy to collect blood from the abdominal aorta and to excise the pancreas. […] Wet weight of the excised pancreas was measured and its ratio to the body weight was calculated. As a comparative example, the same process was repeated except that the inventive compound was replaced by the compound used in Pharmacological Trial 1 as Comparative Example 1, a compound which has been disclosed in JP-A-51-138642.

plasmin = plasmin (Homo sapiens, UniProt P00747); assay: in vitro plasmin inhibition, substrate Boc-Val-Leu-Lys-7-amido-4-methylcoumalin; format: biochemical
plasmin, sequence (P00747 581-810 limits assumed, species assumed): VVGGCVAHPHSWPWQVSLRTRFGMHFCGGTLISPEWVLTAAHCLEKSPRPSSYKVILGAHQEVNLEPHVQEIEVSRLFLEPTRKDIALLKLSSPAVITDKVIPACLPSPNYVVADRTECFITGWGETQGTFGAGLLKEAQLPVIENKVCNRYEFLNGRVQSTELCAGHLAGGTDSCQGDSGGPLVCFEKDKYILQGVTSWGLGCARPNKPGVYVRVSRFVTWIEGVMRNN
plasmin, sequence (P00747 97-580 partner limits assumed, species assumed): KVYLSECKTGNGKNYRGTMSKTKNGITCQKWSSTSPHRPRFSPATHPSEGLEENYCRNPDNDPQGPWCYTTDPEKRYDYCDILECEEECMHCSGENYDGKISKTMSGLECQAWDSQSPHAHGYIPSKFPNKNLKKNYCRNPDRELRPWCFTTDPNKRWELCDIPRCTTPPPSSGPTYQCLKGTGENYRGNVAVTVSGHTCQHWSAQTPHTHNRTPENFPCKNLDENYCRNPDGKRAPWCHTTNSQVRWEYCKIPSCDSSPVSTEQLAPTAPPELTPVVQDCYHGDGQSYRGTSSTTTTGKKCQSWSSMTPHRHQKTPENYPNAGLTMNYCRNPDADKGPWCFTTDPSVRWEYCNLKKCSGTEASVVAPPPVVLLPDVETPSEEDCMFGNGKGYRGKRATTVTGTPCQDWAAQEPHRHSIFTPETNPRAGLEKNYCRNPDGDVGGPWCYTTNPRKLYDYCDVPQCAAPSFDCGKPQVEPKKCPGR
Description: as §1, §2

thrombin = thrombin (Homo sapiens, UniProt P00734); assay: in vitro thrombin inhibition, substrate Boc-Val-Pro-Arg-7-amido-4-methylcoumalin; format: biochemical; conditions: 0.2 M Tris-HCl, 0.02 M CaCl2, 0.005% Triton X-100, pH 8.0, 25°C, 20 minutes
[1] = 100 mg/kg oral, caerulein alone 817 ± 103
[2] = 100 mg/kg oral, caerulein alone 0.88 ± 0.07
[3] = 0.2 M Tris-HCl, 0.02 M CaCl2, 0.005% Triton X-100, pH 8.0, 25°C, 20 minutes

factor Xa, sequence (P00742 235-488 limits assumed): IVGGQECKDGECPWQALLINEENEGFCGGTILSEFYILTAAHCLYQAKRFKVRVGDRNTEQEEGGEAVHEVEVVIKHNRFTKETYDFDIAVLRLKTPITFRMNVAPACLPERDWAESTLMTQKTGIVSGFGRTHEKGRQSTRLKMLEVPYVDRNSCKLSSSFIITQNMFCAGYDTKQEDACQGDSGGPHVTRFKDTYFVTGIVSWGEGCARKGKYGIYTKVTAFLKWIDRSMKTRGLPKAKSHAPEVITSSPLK
factor Xa, sequence (P00742 41-179 partner limits assumed): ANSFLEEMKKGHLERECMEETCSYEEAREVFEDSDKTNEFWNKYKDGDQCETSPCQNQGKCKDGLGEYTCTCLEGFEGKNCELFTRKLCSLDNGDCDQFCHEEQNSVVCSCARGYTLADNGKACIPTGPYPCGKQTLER

Row | Compound | IC50 (factor Xa) [nM] | IC50 (trypsin) [nM] | IC50 (plasmin; [3]) [nM] | IC50 (thrombin) [nM] | Serum amylase (male rats of Wistar line; [1]) [IU/ml] | % Pancreas wt. (male rats of Wistar line; [2]) [%] | histological observation of the pancreas (pancreatitis-specific signs) (male rats of Wistar line; rat group of 100 mg oral administration, caerulein pancreatitis) | IC50 (plasmin) [nM] | Serum amylase (male rats of Wistar line; 10 mg/kg oral, caerulein alone 817 ± 103, no treatment 134 ± 11) [IU/ml] | % Pancreas wt. (male rats of Wistar line; 10 mg/kg oral, caerulein alone 0.88 ± 0.07, no treatment 0.38 ± 0.06) [%] | Serum amylase (male rats of Wistar line; 50 mg/kg oral, caerulein alone 817 ± 103) [IU/ml] | % Pancreas wt. (male rats of Wistar line; 50 mg/kg oral, caerulein alone 0.88 ± 0.07) [%] | histological observation of the pancreas (male rats of Wistar line; rat groups of 10, 50 and 100 mg oral doses, caerulein pancreatitis)
1 | CN(C)C(=O)COC(=O)Cc1ccc(OC(=O)c2ccc(NC(=N)N)cc2)cc1 [Comp. Ex. 1, reference compound] | 56000 | 25 |  |  | 216 ± 7 | 0.47 ± 0.09 | decrease in the pancreatitis-specific signs, but the reducing effects were inferior to those of Compound 39 | 120 |  |  |  |  | 
2 | N=C(N)Nc1ccc(C(=O)Oc2cc(Cl)cc(Cl)c2)cc1 [Comp. Ex. 2, reference compound] | 8500 | 9.5 | 90 | 880 |  |  |  |  |  |  |  |  | 
3 | N=C(N)Nc1ccc(C(=O)Oc2cccc(OC(F)(F)F)c2)cc1 [Compound 2, 3-trifluoromethoxyphenyl 4-guanidinobenzoate] | 430 | 0.17 | 43 | 77 |  |  |  |  |  |  |  |  | 
4 | N=C(N)Nc1ccc(C(=O)Oc2ccc(OC(F)(F)F)cc2)cc1 [Compound 3, 4-trifluoromethoxyphenyl 4-guanidinobenzoate] | 440 | 0.84 | 18 | 39 |  |  |  |  |  |  |  |  | 

More lines, main results first:

Row | IC50 (factor Xa) [nM] | IC50 (trypsin) [nM] | IC50 (plasmin; [3]) [nM] | IC50 (thrombin) [nM] | Compound | Serum amylase (male rats of Wistar line; [1]) [IU/ml] | % Pancreas wt. (male rats of Wistar line; [2]) [%] | histological observation of the pancreas (pancreatitis-specific signs) (male rats of Wistar line; rat group of 100 mg oral administration, caerulein pancreatitis) | IC50 (plasmin) [nM] | Serum amylase (male rats of Wistar line; 10 mg/kg oral, caerulein alone 817 ± 103, no treatment 134 ± 11) [IU/ml] | % Pancreas wt. (male rats of Wistar line; 10 mg/kg oral, caerulein alone 0.88 ± 0.07, no treatment 0.38 ± 0.06) [%] | Serum amylase (male rats of Wistar line; 50 mg/kg oral, caerulein alone 817 ± 103) [IU/ml] | % Pancreas wt. (male rats of Wistar line; 50 mg/kg oral, caerulein alone 0.88 ± 0.07) [%] | histological observation of the pancreas (male rats of Wistar line; rat groups of 10, 50 and 100 mg oral doses, caerulein pancreatitis)
5 | 2500 | 0.52 | 63 | 140 | CON=C(C)c1cccc(OC(=O)c2ccc(NC(=N)N)cc2)c1 [Compound 10, 3-(1-methoxyiminoethyl)phenyl 4-guanidinobenzoate] |  |  |  |  |  |  |  |  | 
6 | 340 | 0.25 | 15 | 69 | CC1(C(=O)Oc2cc(Cl)cc(OC(=O)c3ccc(NC(=N)N)cc3)c2)CC1 [Compound 26, 3-chloro-5-(1-methylcyclopropylcarbonyloxy)phenyl 4-guanidinobenzoate methanesulfonic acid salt] |  |  |  |  |  |  |  |  | 
7 | 3600 | 0.47 | 10 | 580 | N=C(N)Nc1ccc(C(=O)Oc2cc(Cl)cc(OC(=O)C3CCCCC3)c2)cc1 [Compound 31, 3-chloro-5-cyclohexylcarbonyloxyphenyl 4-guanidinobenzoate] |  |  |  |  |  |  |  |  | 
8 | 160 | 0.36 | 12 | 21 | CS(=O)(=O)O.N=C(N)Nc1ccc(C(=O)Oc2cc(Cl)cc(OS(=O)(=O)C=Cc3ccccc3)c2)cc1 [Compound 39, 3-chloro-5-(β-styrenesulfonyloxy)phenyl 4-guanidinobenzoate methanesulfonic acid salt] | 99 ± 17 | 0.39 ± 0.06 |  |  | 556 ± 31 | 0.99 ± 0.16 | 362 ± 15 | 0.66 ± 0.04 | no evident appearance of vacuoles inside the acinic cells, and the appearance of interstitial edema was almost negligible
